In US20190062749A1, “SIRNA, PHARMACEUTICAL COMPOSITION AND CONJUGATE WHICH CONTAIN SIRNA, AND USES THEREOF” (priority 2015, published 2019):
d = 2'-deoxy (DNA); m = 2'-O-methyl; r = 2'-OH (RNA); f = 2'-fluoro

Experiments:
[1] = system: HBsAg; conditions: 25 ng/g subcutaneously twice a week (day 0, 4, 7, 11, 14), day 7 to 28
Description: The drug dosages for all animals were calculated based on the body weight and the administration volume was 10 ml/kg. […] The blood was taken from mouse orbital venous plexus before administration and at day 7, 14, 21, and 28 after administration, and serum HBsAg levels were measured for each time point.
The volume of the blood taken out from the orbit was about 0.5 ml each time, and the volume of the serum was no less than 200 μl after centrifugation. HBsAg CLIA kit (Autobio, CL0310) was used to detect the expression levels of HBsAg in serum. The remaining expression of HBsAg was calculated as follows:
The remaining expression of HBsAg=(the content of HBsAg in the test group/the content of HBsAg in the PBS control group)×100%, wherein the content of HBsAg was expressed in nanograms of HBsAg per gram of liver tissue proteins.

[2] = system: HepG2.2.15 cells; assay: MTT cytotoxicity assay in HepG2.2.15 cells; assay type: cell-based; conditions: 500 nM concentration
[3] = Stability of siRNAs in human plasma in vitro (gel, ratio of the longest fragments RL); assay type: in vitro ADME; conditions: 50% human plasma
Description: The siRNAs (20 μM, 10 μl) obtained in Preparation Example 1 were incubated with 50% human plasma (HP) at 37° C. in vitro for a certain time and samples were taken therefrom. Specifically, 10 μl samples were taken at 0, 2, 4, 6, 8, 24 and 48 hours respectively and immediately snap frozen in liquid nitrogen, followed by cryopreservation at −80° C. for future use. 20 wt % non-denaturing polyacrylamide gel was formulated, and 10 μl 5-fold diluted above samples (dilution solution: 1×PBS buffer at pH 7.4) and 4 μl loading buffer (20 mM EDTA, 36 wt % glycerol, 0.06 wt % bromophenol blue) were mixed and then loaded into the gel to perform electrophoresis for about 60 minutes under 80 mA constant current. After electrophoresis finished, the gel was stained with 1× Sybr Gold dye (Invitrogen, Cat. 11494) for 15 minutes followed by imaging.
The ratio of the longest fragments remained after incubating the test siRNAs and control siRNAs with human plasma to the longest fragments of the siRNAs without the treatment of human plasma (i.e., the markers shown in FIG. 3) (also referred to as ratio of the longest fragments, RL) is calculated by reading the grayscale values quantitatively.

[4] = system: rat primary hepatocytes; assay: MTT cytotoxicity assay in rat primary hepatocytes; assay type: cell-based; conditions: 500 nM concentration
[5] = system: HBV mRNA; assay: Inhibition of HBV mRNA expression in transfected HepG2.2.15 cells (fluorescent qPCR); assay type: cell-based; conditions: 50 nM, 10 nM and 1 nM siRNA, 48 hours after transfection
Description: HepG2.2.15 cells were purchased from ATCC, cultured with DMEM complete medium (Gibco) containing 10% fetal bovine serum (FBS, Gibco), 2 mM L-glutamine (Gibco) and 380 μg/ml G418 in an incubator containing 5% CO2/95% air at 37° C.
When using the siRNAs against the X gene region of HBV or the non-specific siRNAs as negative controls synthesized in Preparation Example 1 (all of which were synthesized by Suzhou Ribo Life Science Co., Ltd.) to transfect cells, Lipofectamine™ 2000 (Invitrogen) was used as a transfection reagent. The specific procedures thereof may refer to the instruction provided by the manufacturer. […]
The final concentrations of the siRNAs were 50 nM, 10 nM and 1 nM, respectively. The expression levels of HBV mRNA in the above harvested cells were measured by real-time fluorescent qPCR 48 hours after transfection. Specifically, RNeasy Mini Kit (QIAGEN Co., Cat. 74106) was used to extract total RNAs according to the instructions thereof, and the extracted total RNAs were reverse transcribed into cDNAs, and then the inhibitory efficiency of the siRNAs on the expression of HBV mRNA in HepG2.2.15 cells was detected by fluorescent qPCR method. […]
In this fluorescent qPCR method, the inhibitory activity of siRNA was expressed as the remaining expression of HBV gene, and was calculated as follows: […]

[6] = system: HBV gene; conditions: prior application CN102140461B; cited from earlier work
[7] = prior application CN102140461B; cited from earlier work
[8] = prior application CN102140461B; cited from earlier work; remark: listed apart in the source
[9] = system: HBsAg; conditions: 0.1 mg/kg gastric gavage daily for 7 days
Description: The drug dosages for all animals were calculated based on the body weight and the administration volume was 10 ml/kg. The PBS group and each of the RBP131/X2M2 groups were administered with a single dose via tail vein, and the entecavir group was administered by gastric gavage daily for 7 consecutive days, i.e., once a day from day 0 to day 6. Half of the animals was sacrificed in batches at day 7 and day 28, respectively. The expression levels of HBsAg in liver tissue were detected by the detection method as described above.

## interferon [IFN]
[1]
  inhibitory effect on the expression of HBsAg in serum (in words): no inhibitory effect

## X2M2: siRNA against HBV X gene; sense CmCmUmUmGAGGCmAUmACmUmUmCmAAA-dTdT, antisense UfUmUfGAAGUfAUGCCUfCAAGG-dTdT; covers S++, S−−, S+−, S−+ (sense CCUUGAGGCAUACUUCAAATT; antisense UUUGAAGUAUGCCUCAAGGTT; sense: DNA at T, 2'-O-methyl at CU, RNA at AG, backbone not given here; antisense: sugars from the 5' end fmfrrrrfrrrrrfrrrrrdd, backbone not given here; phosphorothioate variants at dT overhangs exist)
[2]
  cytotoxicity by MTT assay: no cytotoxicity was observed
[3]; 37° C.
  RL (ratio of the longest fragments) 48 h: ≥ 90%
[3]; up to 48 h
  band position / full-length state on gel (FIG. 3): maintain a full-length state all the time
  plasma stability (in words): more excellent plasma stability than siRNA A4
[4]
  cytotoxicity by MTT assay: no cytotoxicity was observed
[5]
  inhibitory activity on HBV mRNA expression in HepG2.2.15 cells (FIG. 2, in words): excellent activity at cell level

## CA2: alternating modifications; sense CmCUmUGmAGmGCmAUmACmUUmCAmAAmdTdT, antisense UmUUmGAmAGmUAmUGmCCmUCmAAmGGmdTdT (sense CCUUGAGGCAUACUUCAAATT; antisense UUUGAAGUAUGCCUCAAGGTT; sugars from the 5' end mrmrmrmrmrmrmrmrmrmdd, backbone not given here) [reference compound]
[6]
  activity at cell level compared to unmodified siRNA CA1: poorer activity at cell level
[7]
  stability in blood: fails to reach a stable state in the blood
[8]
  cytotoxicity compared to unmodified siRNA CA1: higher cytotoxicity
[3]; 37° C., 0 h
  RL (ratio of the longest fragments) 0 h: 100.0%
[3]; 37° C., 2 h
  RL (ratio of the longest fragments) 2 h: 86.9%
[3]; 37° C., 4 h
  RL (ratio of the longest fragments) 4 h: 76.5%
[3]; 37° C., 6 h
  RL (ratio of the longest fragments) 6 h: 68.8%
[3]; 37° C., 8 h
  RL (ratio of the longest fragments) 8 h: 67.7%
[3]; 37° C., 24 h
  RL (ratio of the longest fragments) 24 h: 48.7%
[3]; 37° C.
  RL (ratio of the longest fragments) 48 h: 52.0%
[3]; up to 48 h
  plasma stability (in words): improved but is still not satisfactory

## C=C1[C@H](CO)[C@@H](O)C[C@@H]1n1cnc2c(=O)[nH]c(N)nc21 [ETV, entecavir]
[9]
  inhibitory effect on the expression of HBsAg in the liver (in words): no inhibitory effect
